Results reported in PMC9515952, “Tentative exploration of pharmacodynamic substances: Pharmacological effects, chemical compositions, and multi-components pharmacokinetic characteristics of ESZWD in CHF-HKYd rats” (Frontiers in Cardiovascular Medicine, 2022).
Where two headings read alike, the source gives them in different places.

Columns and labels:
[1] = Pharmacokinetics of four components of ESZWD in CHF-HKYd rat serum by UPLC-MS/MS; assay type: in vivo; set-up: AUC(0-t) / AUC(0−t) / AUC(0-inf) / AUC(0−∞): concentration or dose not given beside the values; conditions: CHF-HKYd rat serum after oral administration of ESZWD, mean ± SD, n = 6
Procedure: (§1) All rats were randomly divided into control group, model group, ESZWD low-dose (3.96 g/kg), medium-dose (7.92 g/kg), high-dose (15.84 g/kg) groups, and positive control group (benazepril, 0.5 mg/kg), with six rats in each group. The CHF-HKYd was established after 1 week of feeding. ESZWD and benazepril were administered by gavage separately for 4 weeks after successful modeling, except for the control group. Blood was collected for 5, 10, 20, 30, 45 min, 1, 2, 4, 6, 8, 12, and 24 h, standing for 2 h and centrifuged at 4°C, 3,500 rpm for 10 min, the supernatant was retained. The state of rats was observed and the urine volume at 24 h was measured. The structure and function of rat heart were evaluated by doppler ultrasonography. Serum biomarkers including myocardial injury indicators NT-proBNP, angiotensinII (AngII), aldosterone (ALD), reactive oxygen species (ROS), superoxide dismutase (SOD), malondialdehyde (MDA), and tumor necrosis factor α (TNF-α) and interleukin 6 (IL-6) were detected by ELISA.
Chromatographic analysis was performed using ACQUITY UPLC BEH C18 column (2.1 × 50 mm, […]), the mobile phase was acetonitrile (A) 0.1% formic acid water (B), the flow rate was set as 0.2 mL·min^−1, the column temperature was 35°C, the injection volume was 2 μL, and the gradient conditions were as follows: 0–8 min: 6–11%A, 8–23 min: 11–19%A, 23–45 min: 19–38%A, 45–55 min: 38–47%A, 55–55.1 min: 47–52%A, 55.1–65 min: 52–90%A, 65–66 min: 90–6%A of UPLC-Q-TOF/MS analysis and 0–3 min: 8–10%A, 3–3.5 min: 10–70% A, 3.5–5: 70–80%A, 5–5.1 min: 80–8% A, 5.1–6 min: 8% A of UPLC-MS/MS.
Mass spectrometric detection of UPLC-MS/MS analysis was carried out on electrospray ionization (ESI) ion source, multiple reaction monitoring (MRM) mode, ion spray voltage of 5,500 V, the curtain gas and collision gas were 40 and 9 kPa, respectively, declustering potential (DP) and collision voltage (CE) are shown in Table 1.

[2] = rat; for Stability, Room temperature, Mean ± SD: 4 h; for Stability, Automatic sampler, Mean ± SD: 8 h; for Stability, Long-term freeze, Mean ± SD: 7 d
Procedure: The stability of all probe drugs was evaluated by LQC and HQC samples under different experimental conditions, including short-term stability [4 h at room temperature (25°C), 8 h in the automatic sampler, and three freeze and thaw cycles, respectively] and long-term stability (7 d at −80°C).

[3] = test system: ROS; test: Serum reactive oxygen species (ROS) by ELISA in CHF-HKYd rats; assay type: in vivo, rat; conditions: benazepril 0.5 mg/kg, gavage 4 weeks
Procedure: (§2) SPF SD male rats were anesthetized by intraperitoneal injection of 25% urethane (1,000 mg/kg). Cut off the skin tissue for about 1 cm, blunt away from bilateral neck muscles, separate and excise the bilateral thyroid glands, and the parathyroid glands were retained. The mixture of noradrenaline and normal saline (1:4,000) was used to stop intraoperative bleeding during the operation, the muscle and skin were sutured and 0.1% calcium gluconate solution was given postoperatively. On the 10th day after thyroidectomy, the rats were intraperitoneally injected with 0.02% doxorubicin hydrochloride (1 mL/100 g), twice a week for 3 weeks.
as §1, with “ESZWD and benazepril were administered by gavage separately for 4 weeks after successful modeling, except for the control group. Blood was collected for 5, 10, 20, 30, 45 min, 1, 2, 4, 6, 8, 12, and 24 h, standing for 2 h and centrifuged at 4°C, 3,500 rpm for 10 min, the supernatant was retained.” left out

[4] = test system: NT-proBNP; test: Serum NT-proBNP by ELISA in CHF-HKYd rats; assay type: in vivo, rat; conditions: benazepril 0.5 mg/kg, gavage 4 weeks
Procedure: as §2
The general state of rats was observed: the basic criteria for the symptoms of HKYd were dark purple coating on the tongue, asthma, edema, fear of cold, emaciation, loose stools, sleepiness, hypotrichosis, etc. The urine volume of rats was measured: 1 week after the last injection, 24 h urine volume of rats in the normal and model group were collected in the metabolic cage, and the urine samples were frozen at −80°C. Evaluation of cardiac function in rats by Doppler echocardiography: After urine collection, the rats were anesthetized and fixed in the supine position. The precardiac area of the rats was depilated and the coupling agent was applied, a frequency of 12 MHz. […] The contents of serum NT-proBNP, T3, and T4 were detected by ELISA. […]

[5] = test system: TNF-α; test: Serum TNF-α by ELISA in CHF-HKYd rats; assay type: in vivo, rat; conditions: benazepril 0.5 mg/kg, gavage 4 weeks
Procedure: as §2
as §1, with “ESZWD and benazepril were administered by gavage separately for 4 weeks after successful modeling, except for the control group. Blood was collected for 5, 10, 20, 30, 45 min, 1, 2, 4, 6, 8, 12, and 24 h, standing for 2 h and centrifuged at 4°C, 3,500 rpm for 10 min, the supernatant was retained.” left out

[6] = test system: AngII; test: Serum angiotensinII (AngII) by ELISA in CHF-HKYd rats; assay type: in vivo, rat; conditions: benazepril 0.5 mg/kg, gavage 4 weeks
Procedure: as §2
as §1, with “ESZWD and benazepril were administered by gavage separately for 4 weeks after successful modeling, except for the control group. Blood was collected for 5, 10, 20, 30, 45 min, 1, 2, 4, 6, 8, 12, and 24 h, standing for 2 h and centrifuged at 4°C, 3,500 rpm for 10 min, the supernatant was retained.” left out

[7] = test system: ALD; test: Serum aldosterone (ALD) by ELISA in CHF-HKYd rats; assay type: in vivo, rat; conditions: benazepril 0.5 mg/kg, gavage 4 weeks
Procedure: as §2
as §1, with “ESZWD and benazepril were administered by gavage separately for 4 weeks after successful modeling, except for the control group. Blood was collected for 5, 10, 20, 30, 45 min, 1, 2, 4, 6, 8, 12, and 24 h, standing for 2 h and centrifuged at 4°C, 3,500 rpm for 10 min, the supernatant was retained.” left out

[8] = test system: CHF-HKYd rats; test: Doppler echocardiography of cardiac function in CHF-HKYd rats; assay type: in vivo, rat; conditions: benazepril 0.5 mg/kg by gavage for 4 weeks (positive control)
Procedure: as §2
The general state of rats was observed: the basic criteria for the symptoms of HKYd were dark purple coating on the tongue, asthma, edema, fear of cold, emaciation, loose stools, sleepiness, hypotrichosis, etc. The urine volume of rats was measured: 1 week after the last injection, 24 h urine volume of rats in the normal and model group were collected in the metabolic cage, and the urine samples were frozen at −80°C. Evaluation of cardiac function in rats by Doppler echocardiography: After urine collection, the rats were anesthetized and fixed in the supine position. The precardiac area of the rats was depilated and the coupling agent was applied, a frequency of 12 MHz. M-mode ultrasound and pulsed Doppler ultrasound were used to detect diastolic interventricular septum (IVSD), left ventricular internal diastolic diameter (LVIDd), left ventricular posterior wall diastolic diameter (LVPWd), systolic interventricular septum (IVSs) and left ventricular internal systolic diameter (LVIDs), left ventricular posterior wall systolic diameter (LVPWs), stroke volume (SV), left ventricular ejection fraction (LVEF), left ventricular short-axis systolic fraction (FS), and the ratio of peak flow velocity between early and late mitral valve diastole (E/A) through the left ventricular macropinacoid of left sternal bone and four-chamber view. Neuroendocrine factor detection: After the echocardiography, 1 mL of blood was taken from the canthus of rats in each group, blood was placed in the water at 37°C for 1.5 h, centrifuged to obtain serum (3,000 rpm, 10 min), frozen at −80°C. The contents of serum NT-proBNP, T3, and T4 were detected by ELISA.
as §1

[9] = test system: IL-6; test: Serum IL-6 by ELISA in CHF-HKYd rats; assay type: in vivo, rat; conditions: benazepril 0.5 mg/kg, gavage 4 weeks
Procedure: as §2
as §1, with “ESZWD and benazepril were administered by gavage separately for 4 weeks after successful modeling, except for the control group. Blood was collected for 5, 10, 20, 30, 45 min, 1, 2, 4, 6, 8, 12, and 24 h, standing for 2 h and centrifuged at 4°C, 3,500 rpm for 10 min, the supernatant was retained.” left out

[10] = test system: MDA; test: Serum malondialdehyde (MDA) by ELISA in CHF-HKYd rats; assay type: in vivo, rat; conditions: benazepril 0.5 mg/kg, gavage 4 weeks
Procedure: as §2
as §1, with “ESZWD and benazepril were administered by gavage separately for 4 weeks after successful modeling, except for the control group. Blood was collected for 5, 10, 20, 30, 45 min, 1, 2, 4, 6, 8, 12, and 24 h, standing for 2 h and centrifuged at 4°C, 3,500 rpm for 10 min, the supernatant was retained.” left out

Miltrione
AUC(0−t) [1]: 1,098 ± 69.72 ng/mL·h | AUC(0−∞) [1]: 1,125 ± 84.73 ng/mL·h | CL/F [1]: 297.8 ± 23 mL/min/kg | Cmax [1]: 178.9 ± 16.24 ng/mL | T1/2 [1]: 4.25 ± 0.82 h | Tmax [1]: 1.00 ± 0.00 h | V/F [1]: 108.7 ± 15.80 L/kg

C[C@@]12C[C@@]3(O)O[C@@H](O1)[C@]1(COC(=O)c4ccccc4)[C@H]3C[C@@]12O[C@@H]1O[C@H](CO)[C@@H](O)[C@H](O)[C@H]1O [Paeoniflorin]
V/F [1]: 41.20 ± 0.83 L/kg | AUC(0-inf) ([1]; Sprague-Dawley (SD)): 2260 ± 179 ng·h/mL | AUC(0-t) ([1]; Sprague-Dawley (SD)): 2240 ± 178 ng·h/mL | half-life ([1]; Sprague-Dawley (SD)): 3.22 ± 0.34 h | CL/F ([1]; Sprague-Dawley (SD), read-out: CL/F (converted)): 148 mL/min/kg | Cmax ([1]; Sprague-Dawley (SD), read-out: Cmax): 198 ± 27.7 ng/mL | Tmax ([1]; Sprague-Dawley (SD), read-out: Tmax): 6 ± 2.54 h | half-life ([1]; Sprague-Dawley): ~3 h | Stability, Multigelation, Mean ± SD ([2]; 1 ng/mL): 1.012 ± 0.07 ng/mL | Stability, Multigelation, Mean ± SD ([2]; 10 ng/mL): 10.41 ± 0.73 ng/mL | Stability, Multigelation, Mean ± SD ([2]; 150 ng/mL): 162.2 ± 9.25 ng/mL | Stability, Room temperature, Mean ± SD ([2]; 1 ng/mL): 1.046 ± 0.06 ng/mL | Stability, Room temperature, Mean ± SD ([2]; 10 ng/mL): 10.18 ± 0.72 ng/mL | Stability, Room temperature, Mean ± SD ([2]; 150 ng/mL): 160.7 ± 5.68 ng/mL | Stability, Automatic sampler, Mean ± SD ([2]; 1 ng/mL): 1.053 ± 0.02 ng/mL | Stability, Automatic sampler, Mean ± SD ([2]; 10 ng/mL): 10.51 ± 0.98 ng/mL | Stability, Automatic sampler, Mean ± SD ([2]; 150 ng/mL): 160.2 ± 6.15 ng/mL | Stability, Long-term freeze, Mean ± SD ([2]; 1 ng/mL): 1.010 ± 0.08 ng/mL | Stability, Long-term freeze, Mean ± SD ([2]; 10 ng/mL): 10.19 ± 0.97 ng/mL | Stability, Long-term freeze, Mean ± SD ([2]; 150 ng/mL): 149.6 ± 11.70 ng/mL

CCOC(=O)[C@H](CCc1ccccc1)N[C@H]1CCc2ccccc2N(CC(=O)O)C1=O [Benazepril, benazepril]
serum ROS level vs model group [3]: significantly reduce | serum NT-proBNP level vs model group [4]: significantly reduced | serum TNF-α level vs model group [5]: significantly reduced | serum AngII level vs model group [6]: significantly reduced | serum ALD level vs model group [7]: significantly reduced | E/A [8]: 1.794 ± 0.28 | FS [8]: 60.31 ± 8.10 % | IVSd [8]: 1.800 ± 0.62 mm | IVSs [8]: 3.425 ± 0.88 mm | LVEF [8]: 92.30 ± 4.09 % | LVIDd [8]: 5.950 ± 1.28 mm | LVIDs [8]: 2.350 ± 0.72 mm | LVPWd [8]: 1.900 ± 0.67 mm | LVPWs [8]: 3.525 ± 0.79 mm | SV [8]: 0.4950 ± 0.25 mL | serum IL-6 level vs model group [9]: significantly reduced | serum MDA level vs model group [10]: significantly reduce
